Data reported in patent publication US9051295B2, “1-substituted indazole derivative” (Dainippon Sumitomo Pharma Co., Ltd., priority 2012, dated 2015).

Tests used:
[1] = test system: Slc: ddY mice; test: Novel object recognition test in mice (mORT); format: in vivo; conditions: at 0.3 mg/kg, 1.0 mg/kg or 3 mg/kg
Protocol: Evaluation of Cognitive Function with Mice in Novel Object Recognition Test (Hereinafter, Referred to as “mORT”)
Slc: ddY mice (25 g to 30 g, male, Japan SLC) can be used in the novel object recognition test wherein the interval between the 1st trial (training) and the 2nd trial (test) correlates with the memory loss for the objects used in the 1st trial, and a significant memory-loss is observed when the 2nd trial is performed 24 hours after the 1st trial. According to the test mechanism, the present compounds were administered prior to the 1st trial, and the enhancement effect on memory in the 2nd trial was evaluated.

[2] = target: T1, human α7 nAChR (Homo sapiens, UniProt P36544); test: Evaluation of PAM activity with human α7 nACh receptor stably expressing cells (aequorin luminescence, FDSS7000, ACh EC20); format: cell-based; conditions: test compound 10 μmol/L; ACh at EC20; ratio of RLU (Max-Min) of test-compound wells to control wells
T1 construct: expressed in transfected cells; host or cells: GH4C1 cells (rat pituitary, ATCC CCL-82.2)
T1 sequence (P36544 23-502): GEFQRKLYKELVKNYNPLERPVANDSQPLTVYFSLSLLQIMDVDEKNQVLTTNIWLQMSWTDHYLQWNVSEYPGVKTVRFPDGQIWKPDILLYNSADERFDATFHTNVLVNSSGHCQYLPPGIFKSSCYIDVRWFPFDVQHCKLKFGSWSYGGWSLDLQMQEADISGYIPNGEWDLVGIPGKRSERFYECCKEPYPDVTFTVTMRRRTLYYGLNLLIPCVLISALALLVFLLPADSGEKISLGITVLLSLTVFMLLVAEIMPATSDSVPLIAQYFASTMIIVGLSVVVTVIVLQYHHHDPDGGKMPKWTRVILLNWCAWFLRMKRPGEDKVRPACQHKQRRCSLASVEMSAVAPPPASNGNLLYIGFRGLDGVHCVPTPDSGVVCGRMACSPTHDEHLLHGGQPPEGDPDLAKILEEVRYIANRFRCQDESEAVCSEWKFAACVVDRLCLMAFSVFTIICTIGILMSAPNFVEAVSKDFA
Source text: Evaluation of PAM Activity with Human α7 nACh Receptor Stably Expressing Cells
(1) Human α7 nAChR Stably Expressing Cells
Human α7 nAChR stably expressing cells were generated and cultured. In detail, GH4C1 cells derived from rat pituitary (cat#CCL-82.2, ATCC, USA) were used as a host cell. PcDNA3.1Zeo vector containing a nucleotide sequence encoding a protein GenBank BAC81731 and pcDNA3.1 vector containing human α7 nAChR gene (cat#V790-20, invitrogen, Carlsbad, Calif., USA) were transfected to the cells to give aequorins and human α7 nAChR stably expressing cells respectively. The aequorins and human α7 nAChR stably expressing cells were screened with Zeocin (cat#R25001, invitrogen, Carlsbad, Calif., USA) and Geneticin (cat#10131-027, invitrogen, Carlsbad, Calif., USA) respectively.
The cells were cultured in F-10 Nutrient Mixture (Ham) medium (cat#11550-043, invitrogen, Carlsbad, Calif., USA) containing 2.5% fetal bovine serum (cat#2917354, ICN Biomedicals, Inc, USA), 15% inactivated horse serum (cat#26050-088, invitrogen, Carlsbad, Calif., USA), 1 μg/mL Geneticin, and 5 μg/mL Puromycin (cat#14861-84, invitrogen, Carlsbad, Calif., USA), in a Collagen Type 1-coated dish (cat#4030-010, iwaki, Tokyo, Japan). During the culture, the medium was replaced with fresh medium in every 2 to 3 days, and the cells were treated with TrypLE Express (cat#45604-021, invitrogen, Carlsbad, Calif., USA) to collect them in every 7 days. Thus, the cells were subcultured.
7 Days after subculturing, the cells were treated with TrypLE Express to collect them when they were about 80% confluent. The cells were suspended in a reaction medium containing Hanks (cat#14065-056, invitrogen, Carlsbad, Calif., USA)/20 mmol/L Hepes (cat#15630-080, invitrogen, Carlsbad, Calif., USA), Buffer (pH 7.4), F-10 Nutrient Mixture (Ham), and 0.1 mg/mL Geneticin, and the suspension was seeded in a 384-well plate (cat#781090, Greiner, Germany) at 20000 cells/25 μL per well.
On the next day after seeding, Viviren (cat#E649X, Promega, Madison, Wis., USA) was added to the medium so that the final concentration could be 4 μmol/L (15 μL/well). The plates were centrifuged and then placed in the dark for 4 hours at room temperature.
(2) Preparation of the Test Samples
Each of the test compounds was dissolved in DMSO to prepare each test sample at a concentration of 1000-fold the final concentration. To the solution was added Hanks/20 mM HEPES/0.2% BSA (cat#A3803, Sigma, St. Louis, Mo., USA), and the concentration was adjusted to 6-fold the final concentration.
(3) Evaluation of PAM Activity
FDSS7000 (Hamamatsu Photonics) was used to detect the luminescence signal evoked by α7 nAChR stimulation. The cells and a luminescent substrate were put on a plate, and the test sample was added thereto. […] After the addition of ACh, the luminescence signal (the central wavelength: 465 nm) was measured for 138 seconds to calculate RLU (Max-Min). The ratio of the RLU (Max-Min) of the test-compound-containing wells to that of the control wells was defined as PAM activity.

α7PAM (%) @ 10 μmol/L [2] [%]	Structure (SMILES)	efficacy at higher doses [1]
1209	CO[C@H]1CC[C@H](NC(=O)N2CCC(n3ncc4cc(C)ccc43)CC2)CC1 [Example 1, N-(trans-4-methoxycyclohexyl)-4-(5-methyl-1H-indazol-1-yl)piperidine-1-carboxamide]	the efficacy did not decrease
1226	CO[C@H]1CC[C@H](NC(=O)N2CCC(n3ncc4cc(C5CC5)ccc43)CC2)CC1 [Example 74, 4-(5-cyclopropyl-1H-indazol-1-yl)-N-(trans-4-methoxycyclohexyl)piperidine-1-carboxamide]	the efficacy did not decrease
1096	CCc1ccc2c(cnn2C2CCN(C(=O)N[C@H]3CC[C@H](OC)CC3)CC2)c1OC [Example 255, 4-(5-ethyl-4-methoxy-1H-indazol-1-yl)-N-(trans-4-methoxycyclohexyl)piperidine-1-carboxamide]	
1093	CCc1ccc2c(cnn2C2CCN(C(=O)NC3CCOCC3)CC2)c1OC [Example 275, 4-(5-ethyl-4-methoxy-1H-indazol-1-yl)-N-(tetrahydro-2H-pyran-4-yl)piperidine-1-carboxamide]	
1433	CO[C@H]1CC[C@H](NC(=O)N2CCC(n3ncc4cc(OC(F)F)ccc43)CC2)CC1 [Example 291, 4-[5-(difluoromethoxy)-1H-indazol-1-yl]-N-(trans-4-methoxycyclohexyl)piperidine-1-carboxamide]	
340	O=C(NC1CCOCC1)N1CCC(n2ncc3cc(C(F)(F)F)ccc32)CC1 [Example 297]	
380	O=C(NC1CCOCC1)N1CCC(n2ncc3c(OC(F)(F)F)cccc32)CC1 [Example 304]	
360	COc1c(C(F)(F)F)ccc2c1cnn2C1CCN(C(=O)NC2CCC(OC)CC2)CC1 (stereo not shown) [Example 317]	
